This is an account of results in patent US10745382B2 (BRISTOL-MYERS SQUIBB COMPANY, priority 2015, dated 2020).

Structures are written as SMILES. pIC50: −log10 of the molar value. Read-outs that look alike come from different tables or passages of the source.

In the experiment the target is T1, PD-1/PD-L1 (Homo sapiens, UniProt Q9NZQ7).
T1 construct: made in house; host or cells: HEK293T
Nature of the experiment: PD-1/PD-L1 Homogenous Time-Resolved Fluorescence (HTRF) binding assay. Particulars: PD-L1-His 10 nM, PD-1-Ig 20 nM, read-out: Range or IC50. An outline of the steps:
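Detection by europium cryptate anti-Ig plus APC anti-His (1 nM and 20 nM final) with HTRF signal. Buffer was dPBS, 0.1% BSA, 0.05% Tween-20.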

T1 sequence (Q9NZQ7 with tags, fused parts or gaps): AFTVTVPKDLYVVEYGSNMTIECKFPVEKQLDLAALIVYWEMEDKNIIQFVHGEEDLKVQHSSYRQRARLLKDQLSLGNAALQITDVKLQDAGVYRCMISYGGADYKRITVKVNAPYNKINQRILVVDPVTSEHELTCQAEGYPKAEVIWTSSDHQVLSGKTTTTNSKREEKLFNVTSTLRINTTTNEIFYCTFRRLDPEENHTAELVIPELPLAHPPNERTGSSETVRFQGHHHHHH

What is called pIC50 is −log10 of the IC50, conventionally taken in molar units. Regarding `Cc1c(COc2cc(OCc3cncc(C#N)c3)c(CN3CCCC[C@H]3C(=O)O)cc2Cl)cccc1-c1cccc(OCCCN2C[C@@H](O)C[C@H]2C(=O)O)c1C` [Example 2240, (2S)-1-(4-((3′-(3-((2S,4S)-2-carboxy-4-hydroxypyrrolidin-1-yl)propoxy)-2,2′-dimethylbiphenyl-3-yl)methoxy)-5-chloro-2-((5-cyanopyridin-3-yl)methoxy)benzyl)piperidine-2-carboxylic Acid], the pIC50 (value given as range class) was 8.00 to 9.68.

On to `Cc1c(COc2cc(OCc3cncc(C#N)c3)c(CN3CCCC[C@H]3C(=O)O)cc2Cl)cccc1-c1cccc(OCCCN2C[C@H](O)C[C@H]2C(=O)O)c1C` [Example 2241, (2S)-1-(4-((3′-(3-((2S,4R)-2-carboxy-4-hydroxypyrrolidin-1-yl)propoxy)-2,2′-dimethylbiphenyl-3-yl)methoxy)-5-chloro-2-((5-cyanopyridin-3-yl)methoxy)benzyl)piperidine-2-carboxylic Acid], for which the pIC50 (value given as range class) was 8.00 to 9.68.

As for `Cc1c(COc2cc(OCc3cncc(C#N)c3)c(CN3CCCC[C@H]3C(=O)O)cc2Cl)cccc1-c1cccc(OCCCNC[C@H](O)C(=O)O)c1C` [Example 2242, (2S)-1-(4-((3′-(3-((S)-2-carboxy-2-hydroxyethylamino)propoxy)-2,2′-dimethylbiphenyl-3-yl)methoxy)-5-chloro-2-((5-cyanopyridin-3-yl)methoxy)benzyl)piperidine-2-carboxylic Acid], the pIC50 (value given as range class) is 8.00 to 9.68.

With `COC(=O)[C@@H]1CCCCN1CCCOc1cccc(-c2cccc(COc3cc(OCc4cncc(C#N)c4)c(CN4CCCC[C@H]4C(=O)O)cc3Cl)c2C)c1C` [Example 2243, (2S)-1-(5-chloro-2-((5-cyanopyridin-3-yl)methoxy)-4-((3′-(3-((S)-2-(methoxycarbonyl)piperidin-1-yl)propoxy)-2,2′-dimethylbiphenyl-3-yl)methoxy)benzyl)piperidine-2-carboxylic Acid], where the note is “value given as range class”, the pIC50 was 8.00 to 9.68.

Turning to `Cc1c(COc2cc(OCc3cncc(C#N)c3)c(CN3CCCC[C@H]3C(=O)O)cc2Cl)cccc1-c1cccc(OCCCN2CCCCC2C(N)=O)c1C` (stereo partly drawn) [Example 2244, (2S)-1-(4-((3′-(3-(2-carbamoylpiperidin-1-yl)propoxy)-2,2′-dimethylbiphenyl-3-yl)methoxy)-5-chloro-2-((5-cyanopyridin-3-yl)methoxy)benzyl)piperidine-2-carboxylic Acid], the pIC50 (value given as range class) was 8.00 to 9.68.

`Cc1c(COc2cc(OCc3cncc(C#N)c3)c(CN3CCCC[C@H]3C(=O)O)cc2Cl)cccc1-c1cccc(OCCCN2CCCCC2C)c1C` (stereo partly drawn) [Example 2245, (2S)-1-(5-chloro-2-((5-cyanopyridin-3-yl)methoxy)-4-((2,2′-dimethyl-3′-(3-(2-methylpiperidin-1-yl)propoxy)biphenyl-3-yl)methoxy)benzyl)piperidine-2-carboxylic Acid]: the pIC50 (value given as range class) was 8.00 to 9.68.

As for `Cc1c(COc2cc(OCc3cncc(C#N)c3)c(CN3CCCC[C@H]3C(=O)O)cc2Cl)cccc1-c1cccc(OCCCN2CCC(N(C)C(=O)OC(C)(C)C)CC2)c1C` [Example 2246, (2S)-1-(4-((3′-(3-(4-(tert-butoxycarbonyl(methyl)amino)piperidin-1-yl)propoxy)-2,2′-dimethylbiphenyl-3-yl)methoxy)-5-chloro-2-((5-cyanopyridin-3-yl)methoxy)benzyl)piperidine-2-carboxylic Acid], for the setting “value given as range class”, the pIC50 is 8.00 to 9.68.

In the case of `Cc1c(COc2cc(OCc3cncc(C#N)c3)c(CN3CCCC[C@H]3C(=O)O)cc2Cl)cccc1-c1cccc(OCCCN2CC[C@H](F)C2)c1C` [Example 2247, (2S)-1-(5-chloro-2-((5-cyanopyridin-3-yl)methoxy)-4-((3′-(3-((S)-3-fluoropyrrolidin-1-yl)propoxy)-2,2′-dimethylbiphenyl-3-yl)methoxy)benzyl)piperidine-2-carboxylic Acid], where the note is “value given as range class”, the pIC50 is 8.00 to 9.68.

As to `Cc1c(COc2cc(OCc3cncc(C#N)c3)c(CN3CCCC[C@H]3C(=O)O)cc2Cl)cccc1-c1cccc(OCCCN2CCC(N3CCOCC3)CC2)c1C` [Example 2248, (2S)-1-(5-chloro-2-((5-cyanopyridin-3-yl)methoxy)-4-((2,2′-dimethyl-3′-(3-(4-morpholinopiperidin-1-yl)propoxy)biphenyl-3-yl)methoxy)benzyl)piperidine-2-carboxylic Acid], the pIC50 (value given as range class) was 8.00 to 9.68.

With `Cc1c(COc2cc(OCc3cncc(C#N)c3)c(CN3CCCC[C@H]3C(=O)O)cc2Cl)cccc1-c1cccc(OCCCN2CC3CC2CO3)c1C` (stereo partly drawn) [Example 2249, (2S)-1-(4-((3′-(3-(2-oxa-5-azabicyclo[2.2.1]heptan-5-yl)propoxy)-2,2′-dimethylbiphenyl-3-yl)methoxy)-5-chloro-2-((5-cyanopyridin-3-yl)methoxy)benzyl)piperidine-2-carboxylic Acid], the negative logarithm of the IC50 (pIC50) (value given as range class) was 8.00 to 9.68.

Turning to `CC(=O)N[C@@H]1CCN(CCCOc2cccc(-c3cccc(COc4cc(OCc5cncc(C#N)c5)c(CN5CCCC[C@H]5C(=O)O)cc4Cl)c3C)c2C)C1` [Example 2250, (2S)-1-(4-((3′-(3-((R)-3-acetamidopyrrolidin-1-yl)propoxy)-2,2′-dimethylbiphenyl-3-yl)methoxy)-5-chloro-2-((5-cyanopyridin-3-yl)methoxy)benzyl)piperidine-2-carboxylic Acid], the pIC50 (value given as range class) was 8.00 to 9.68.

On to `Cc1c(COc2cc(OCc3cncc(C#N)c3)c(CN3CCCC[C@H]3C(=O)O)cc2Cl)cccc1-c1cccc(OCCCN2CCCCC2CC(=O)O)c1C` (stereo partly drawn) [Example 2251, (2S)-1-(4-((3′-(3-(2-(carboxymethyl)piperidin-1-yl)propoxy)-2,2′-dimethylbiphenyl-3-yl)methoxy)-5-chloro-2-((5-cyanopyridin-3-yl)methoxy)benzyl)piperidine-2-carboxylic Acid], for which the pIC50 (value given as range class) was 8.00 to 9.68.

Regarding `CO[C@@H]1CCN(CCCOc2cccc(-c3cccc(COc4cc(OCc5cncc(C#N)c5)c(CN5CCCC[C@H]5C(=O)O)cc4Cl)c3C)c2C)C1` [Example 2252, (2S)-1-(5-chloro-2-((5-cyanopyridin-3-yl)methoxy)-4-((3′-(3-((R)-3-methoxypyrrolidin-1-yl)propoxy)-2,2′-dimethylbiphenyl-3-yl)methoxy)benzyl)piperidine-2-carboxylic Acid], the pIC50 (value given as range class) was 8.00 to 9.68.

On to `Cc1c(COc2cc(OCc3cncc(C#N)c3)c(CN3CCCC[C@H]3C(=O)O)cc2Cl)cccc1-c1cccc(OCCCN(C)C)c1C` [Example 2253, (2S)-1-(5-chloro-2-((5-cyanopyridin-3-yl)methoxy)-4-((3′-(3-(dimethylamino)propoxy)-2,2′-dimethylbiphenyl-3-yl)methoxy)benzyl)piperidine-2-carboxylic Acid], for which the pIC50 (numeric IC50) was 8.28.

As for `Cc1c(COc2cc(OCc3cncc(C#N)c3)c(CN(C)CC(O)CO)cc2Cl)cccc1-c1cccc(OCCCN(C)CC(O)CO)c1C` (stereo not drawn) [Example 2254, 5-((4-chloro-2-(((2,3-dihydroxypropyl)(methyl)amino)methyl)-5-((3-(3-((2,3-dihydroxypropyl) (methyl)amino)propoxy)-2,2′-dimethylbiphenyl-3-yl)methoxy)phenoxy)methyl)nicotinonitrile], the pIC50 (value given as range class) was 8.00 to 9.68.

With `Cc1c(COc2cc(OCc3cncc(C#N)c3)c(CN3CCCC(CO)C3)cc2Cl)cccc1-c1cccc(OCCCN2CCCC(CO)C2)c1C` (stereo not drawn) [Example 2255, 5-((4-chloro-2-((3-(hydroxymethyl)piperidin-1-yl)methyl)-5-((3′-(3-(3-(hydroxymethyl)piperidin-1-yl)propoxy)-2,2′-dimethylbiphenyl-3-yl)methoxy)phenoxy)methyl)nicotinonitrile], the negative logarithm of the IC50 (pIC50) (value given as range class) is 8.00 to 9.68.

For `Cc1c(COc2cc(OCc3cncc(C#N)c3)c(CN3CCCCC3CO)cc2Cl)cccc1-c1cccc(OCCCN2CCCCC2CO)c1C` (stereo not drawn) [Example 2256, 5-((4-chloro-2-((2-(hydroxymethyl)piperidin-1-yl)methyl)-5-((3′-(3-(2-(hydroxymethyl)piperidin-1-yl)propoxy)-2,2′-dimethylbiphenyl-3-yl)methoxy)phenoxy)methyl)nicotinonitrile], the pIC50 (value given as range class) is 8.00 to 9.68.

As for `Cc1c(COc2cc(OCc3cncc(C#N)c3)c(CN3CC[C@H](CO)[C@H](O)C3)cc2Cl)cccc1-c1cccc(OCCCN2CC[C@H](CO)[C@H](O)C2)c1C` [Example 2257, 5-((4-chloro-2-(((3S,4R)-3-hydroxy-4-(hydroxymethyl)piperidin-1-yl)methyl)-5-((3′-(3-((3S,4R)-3-hydroxy-4-(hydroxymethyl)piperidin-1-yl)propoxy)-2,2′-dimethylbiphenyl-3-yl)methoxy)phenoxy)methyl)nicotinonitrile], the pIC50 (value given as range class) was 8.00 to 9.68.

In the case of `Cc1c(COc2cc(OCc3cncc(C#N)c3)c(CN3CCN(CCO)CC3)cc2Cl)cccc1-c1cccc(OCCCN2CCN(CCO)CC2)c1C` [Example 2258, 5-((4-chloro-2-((4-(2-hydroxyethyl)piperazin-1-yl)methyl)-5-((3′-(3-(4-(2-hydroxyethyl)piperazin-1-yl)propoxy)-2,2′-dimethylbiphenyl-3-yl)methoxy)phenoxy)methyl)nicotinonitrile], under “value given as range class”, the negative logarithm of the IC50 (pIC50) is 8.00 to 9.68.

Turning to `Cc1c(COc2cc(OCc3cncc(C#N)c3)c(CN3CCC[C@H](C(=O)O)C3)cc2Cl)cccc1-c1cccc(OCCCN2CCC[C@H](C(=O)O)C2)c1C` [Example 2259, (3S)-1-(3-(3′-((4-(((S)-3-carboxypiperidin-1-yl)methyl)-2-chloro-5-((5-cyanopyridin-3-yl)methoxy)phenoxy)methyl)-2,2′-dimethylbiphenyl-3-yloxy)propyl)piperidine-3-carboxylic Acid], the pIC50 (value given as range class) is 8.00 to 9.68.

Regarding `Cc1c(COc2cc(OCc3cncc(C#N)c3)c(CN[C@@](C)(CO)C(=O)O)cc2Cl)cccc1-c1cccc(OCCCN2CCCC(CO)C2)c1C` (stereo partly drawn) [Example 2260, (2S)-2-(5-chloro-2-((5-cyanopyridin-3-yl)methoxy)-4-((3′-(3-(3-(hydroxymethyl)piperidin-1-yl)propoxy)-2,2′-dimethylbiphenyl-3-yl)methoxy)benzylamino)-3-hydroxy-2-methylpropanoic Acid], the pIC50 (value given as range class) was 8.00 to 9.68.
